Laboratory results reported in US20090221573A1, “Use of Activators of Soluble Guanylate Cyclase for Promoting Wound Healing” (Bayer HealthCare AG, priority 2005, published 2009).
Where two headings read alike, the source gives them in different places.

Tested on: smooth muscle cells of the human coronary artery
Test: Inhibition of the horizontal migration of smooth muscle cells (wounded monolayer)
Format: cell-based
Conditions: read-out: Inhibition of the horizontal migration of smooth muscle cells of the human coronary artery, IC50
Procedure: Smooth muscle cells of the human coronary artery are seeded in a 6-well plate (1.5×10^5 cells/well) (Clonetics) and cultured in SmGM2 medium (Clonetics) for 48 h. Before the plates are used, the wells are coated with vitronectin (50 ng/cm^2; Gibco BRL). Half of the confluent cell monolayer is removed with the aid of a cell scraper (wounding). In the cell-free region, the vitronectin coating is at least 50% retained in this case. For the test, unless mentioned otherwise, the culture medium is replaced by MCDB-131/0.2% BSA (Gibco/BRL) medium. The test substances are added in various concentrations, and the migration distance in the cell-free region is followed with the aid of a microscope over 24 h and 48 h. Each measurement point represents the average of four measured regions. PDGF, as potent chemotactic factor for SMC, is used as positive control (1 nM, 10 nM, R&D systems). The RGD tripeptide (Bachem) is employed to inhibit the integrin-induced migration. To determine the antagonistic activity of the test substances, the cells are stimulated in the presence of the substance with 1 nM or 10 nM PDGF, and the migration distances are determined in relation to the PDGF-induced migration distances.

Row | SMILES | IC50 (48 h) [nM] | IC50 (incubation time 48 h) [nM]
1 | COC(=O)Nc1c(N)nc(-c2nn(Cc3ccccc3F)c3ncccc23)nc1N [IVa] | 30 | –
2 | COC(=O)N(C)c1c(N)nc(-c2nn(Cc3ccccc3F)c3ncccc23)nc1N [IV] | – | 10
3 | O=C(O)CCCCN(CCc1ccccc1OCc1ccc(CCc2ccccc2)cc1)Cc1ccc(C(=O)O)cc1 [Compound I] | 5 | –
